Tests used:
Assay type in all cases: in vivo
Plutella xylostella = Plutella xylostella test, spray treatment dripping wet (cabbage plants); details: alone; for Kill in % after 7d: Table B1
Procedure: (§1) To produce a suitable solution, 1 part by weight of formulation is mixed with the stated amount of water and adjuvant and the concentrate is diluted with water to the desired concentration.
Cabbage plants (Brassica pekinesis) are sprayed to runoff point with the desired use concentration and populated with larvae of the diamondback moth (Plutella xylostella) while the leaves are still moist.
(§2) After the desired period of time, the kill in % is determined. 100% means that all larvae have been killed; 0% means that none of the larvae have been killed. The determined kill rates are entered into Colby's formula (see above).

Aphis gossypii = Aphis gossypii test, spray application dripping wet (cotton plants); details: alone
Procedure: (§3) Solvent: water Adjuvant: rapeseed oil methyl ester
(§4) To produce a suitable application solution, 1 part by weight of the formulation is mixed with the appropriate amount of water and the adjuvant and the concentrate is diluted with water to the desired concentration.
Cotton plants (Gossypium herbaceum) which are heavily infested by the cotton aphid (Aphis gossypii) are sprayed to runoff point with the desired concentration of the application solution.
(§5) After the desired period of time, the kill in % is determined. 100% means that all aphids have been killed; 0% means that none of the aphids have been killed. The determined kill rates are entered into Colby's formula (see sheet 1).

Myzus persicae = Myzus persicae test, spray application dripping wet (bell pepper plants); details: alone; for Kill in % after 3d: Table F1; for Kill in % after 7d: Table F2
Procedure: as §3, §4
Bell pepper plants (Capsicum sativum) which are heavily infested by the green peach aphid (Myzus persicae) are sprayed to runoff point with the desired concentration of the application solution.
as §5

Heliothis armigera = Heliothis armigera test, spray treatment dripping wet (cotton plants); details: alone; for Kill in % after 7d: Table A1; for Kill in % after 3d: Table A2
Procedure: as §1
Cotton plants (Gossypium hirsutum) are sprayed to runoff point with the desired use concentration and populated with caterpillars of the cotton bollworm (Heliothis armigera) while the leaves are still moist.
as §2

Metopolophium dirhodum = Metopolophium dirhodum test, spray application dripping wet (barley plants); details: 100 ppm, alone
Procedure: as §3, §4
Metopolophium dirhodum Test
Barley plants (Hordeum vulgare) which are heavily infested by a cereal aphid (Metopolophium dirhodum) are sprayed to runoff point with the desired concentration of the application solution.
as §5

Spodoptera frugiperda = Spodoptera frugiperda test, spray treatment dripping wet (corn plants); details: Table C2; 100 ppm; alone
Procedure: as §1
Spodoptera frugiperda Test
Corn plants (Zea mais) are sprayed to runoff point with the desired use concentration and populated with caterpillars of the armyworm (Spodoptera frugiperda) while the leaves are still moist.
as §2

C=CCN(CC=C)C(=O)C(Cl)Cl [dichlormid, 2,2-dichloro-N,N-di-2-propenylacetamide]
0%: Kill in % after 3d (Plutella xylostella; Table B2, 100 ppm) | Kill in % after 7d (Aphis gossypii; Table D1, 100 ppm) | Kill in % after 7d (Aphis gossypii; Table D2, 50 ppm) | Kill in % after 3d (Myzus persicae; 25 ppm) | Kill in % after 7d (Myzus persicae; 100 ppm) | Kill in % after 7d (Heliothis armigera; 100 ppm) | Kill in % after 3d (Heliothis armigera; 100 ppm) | Kill in % after 7d (Metopolophium dirhodum; Table E1) | Kill in % after 7d (Metopolophium dirhodum; Table E2) | Kill in % after 3d (Spodoptera frugiperda)

Clc1cc(Cl)nc(-c2ccccc2)n1 [fenclorim, 4,6-dichloro-2-phenylpyrimidine]
0%: Kill in % after 7d (Plutella xylostella; 25 ppm) | Kill in % after 7d (Aphis gossypii; Table D1, 100 ppm) | Kill in % after 7d (Aphis gossypii; Table D2, 100 ppm) | Kill in % after 3d (Myzus persicae; 25 ppm) | Kill in % after 7d (Myzus persicae; 100 ppm) | Kill in % after 3d (Heliothis armigera; 100 ppm) | Kill in % after 7d (Metopolophium dirhodum; Table E1) | Kill in % after 7d (Metopolophium dirhodum; Table E2) | Kill in % after 3d (Spodoptera frugiperda)

CC1(C)OC(c2ccco2)CN1C(=O)C(Cl)Cl (stereo not shown) [furilazole, 3-dichloroacetyl-5-(2-furanyl)-2,2-dimethyloxazolidine]
0%: Kill in % after 7d (Plutella xylostella; 50 ppm) | Kill in % after 7d (Aphis gossypii; Table D1, 100 ppm) | Kill in % after 7d (Aphis gossypii; Table D2, 100 ppm) | Kill in % after 3d (Myzus persicae; 100 ppm) | Kill in % after 7d (Heliothis armigera; 25 ppm) | Kill in % after 3d (Heliothis armigera; 50 ppm) | Kill in % after 7d (Metopolophium dirhodum; Table E1) | Kill in % after 7d (Metopolophium dirhodum; Table E2) | Kill in % after 3d (Spodoptera frugiperda)
